Key:
SREBP pathway = test: SREBP luciferase reporter gene system (SRE-luciferase assay) in Huh-7/SRE-Luc cells; assay type: cell-based; settings: Homo sapiens, sterol-deficient medium, compound treatment 16 hours, luciferase/GFP ratio
Protocol: Huh-7/SRE-Luc, a human hepatocellular carcinoma cell line, was grown in a culture medium containing DMEM, 10% fetal bovine serum, 100 units/mL penicillin, 100 µg/mL streptomycin, and 200 μg/mL G418.
The Huh-7/SRE-Luc cell line is a human hepatocellular carcinoma cell line Huh-7 stably expressing LDLR promoter-luciferase and green fluorescent protein (GFP). The LDLR promoter region contains a sterol regulatory element (SRE) that can effectively and sensitively respond to the regulation of the transcription factor SREBP. The GFP signal serves as an internal reference to indicate changes in cell number. Therefore, this cell line can be used to screen for active small molecules that regulate the SREBP signaling pathway. […] Cells were incubated in a sterol-deficient medium (5% lipoprotein-deficient serum, 2 μM Lovastatin, 10 μM mevalonate) and treated with corresponding concentrations of compounds for 16 hours. After compound treatment, the cells were lysed with lysis buffer (E397A, Promega), followed by the addition of luciferase substrate (E1500, Promega). The SRE-driven luciferase activity was measured using a BioTek Synergy HTX microplate reader (including but not limited to this type of instrument). The fluorescence intensity of enhanced green fluorescent protein (EGFP) was also measured using the BioTek microplate reader (including but not limited to this type of instrument) and used as an internal reference. The ratio of SRE-driven luciferase activity to GFP fluorescence intensity was used as an indicator of SREBP pathway activity. The test data of each test compound was analyzed using Prism software to obtain the IC50 parameter of the compound.
The inhibitory effect of the compounds of the present disclosure on the SREBP pathway was tested by the method of bioassay example 2. The concentration gradient of each compound was designed as 0.01, 0.03, 0.1, 0.3, 1.0, 3.0, and […], with DMSO as a vehicle control.

[1] = Liver microsomal metabolic stability assay; assay type: in vitro ADME; settings: rat liver microsomes, NADPH, 37° C., 0-60 minutes; read-out: Rat microsomal metabolic half-life (t1/2)
Protocol: PBS solution (100 mM), MgCl2 solution (100 mM), and NADPH solution (20 mM) were prepared respectively. Compound and testosterone (positive control) stock solutions were then prepared with dimethyl sulfoxide (DMSO), diluted to 100 µM with methanol for sample incubation, and stored at −10 to −30° C. 12.5 μL of rat liver microsomes (purchased from XenoTech, Cat. No.: R1000, Lot No.: 1310030, specification: 20 mg/mL), 432.5 µL of PBS solution (100 mM), 25 µL of NADPH solution (20 mM), and 25 μL of MgCl2 solution (100 mM) were added to a 96-well plate, mixed well, and pre-incubated at 37° C. for 5 minutes. 5 µL of substrate (test compound) solution was added to start the reaction. At specified time points of 0, 5, 15, 30, 45, and 60 minutes (0 and 60 minutes for the negative control group), 50 µL of the incubated samples were added to a stop plate containing 100 µL of ice-cold stop solution, vortexed for 1 minute to inactivate the reaction, and stored at −60 to −90° C. for subsequent analysis. Sample analysis of the test compound and the control compound testosterone was performed using LC-MS/MS method. Chromatographic peaks were integrated, calculated, and processed using Analyst software. Semi-quantitative analysis was performed for both the test compound and the control compound testosterone by calculating peak area ratios.

With `C[C@H](CCC[C@@H](O)c1ccccc1F)[C@H]1CC[C@H]2[C@@H]3CC[C@H]4[C@@H](O)[C@@H](O)CC[C@]4(C)[C@H]3CC[C@]12C` (single isomer, unassigned) [compound 279, 24-[R-(2-fluorophenyl)(hydroxy)methyl]-5α-cholan-30,40-diol or 24-[S-(2-fluorophenyl)(hydroxy)methyl]-5α-cholan-30,40-diol] the IC50 (SREBP pathway) was 0.196 µM and the half-life at 1 µM [1] was 0.922 h.

With `C[C@H](CCCC(C)(C)O)[C@H]1CC[C@H]2[C@@H]3CC[C@H]4C[C@@H](O)CC[C@]4(C)[C@H]3CC[C@]12C` [compound 185, cholest-3β,25-diol] the IC50 (SREBP pathway) was 0.233 µM and the half-life at 1 µM [1] was 3.17 h.

Compound `C[C@H](CCCC(C)(C)O)[C@H]1CC[C@H]2[C@@H]3CC[C@H]4[C@@H](O)[C@@H](O)CC[C@]4(C)[C@H]3CC[C@]12C` [compound 198, 5α-Cholest-30,40,25-triol] has an IC50 (SREBP pathway) of 0.106 µM and a half-life at 1 µM [1] of 1.2 h.

`C[C@H](CCCC(C)(C)O)[C@H]1CC[C@H]2[C@@H]3CC[C@H]4[C@H](O)[C@@H](O)CC[C@]4(C)[C@H]3CC[C@]12C` [compound 204, 5α-cholest-3β,4α,25-triol] gave an IC50 (SREBP pathway) of 0.395 µM and a half-life at 1 µM [1] of 3.97 h.

In the case of `C[C@H](CCCC(C)(C)O)[C@H]1CC[C@H]2[C@@H]3C(=O)C[C@H]4C[C@@H](O)CC[C@]4(C)[C@H]3CC[C@]12C` [compound 216, 3P,25-dihydroxy-5α-cholest-7-one], the IC50 (SREBP pathway) is reported as 0.379 µM and the half-life at 1 µM [1] is reported as 0.385 h.

`C[C@H](CCCC(C)(C)O)[C@H]1CC[C@H]2[C@@H]3CC[C@H]4C(=O)[C@@H](O)CC[C@]4(C)[C@H]3CC[C@]12C` [compound 238, 3β,25-Dihydroxy-5α-cholest-4-one] showed an IC50 (SREBP pathway) of 0.049 µM and a half-life at 1 µM [1] of 1.26 h.

Compound `C[C@H](CCCC(C)(C)O)[C@H]1CC[C@H]2[C@H]3[C@H](CC[C@]12C)[C@@]1(C)CC[C@H](O)[C@H](O)[C@@H]1CC3(F)F` [compound 274, (1R,3aS,3bS,5aR,6R,7S,9aR,9bS,11aR)-4,4-difluoro-1-[(2R)-6-hydroxy-6-methylheptan-2-yl]-9a,11a-dimethylhexadecahydro-1H-cyclopenta[1,2-a]phenanthrene-6,7-diol] has an IC50 (SREBP pathway) of 0.313 µM and a half-life at 1 µM [1] greater than 3.1 h.

With `C[C@H](CCCC(O)c1c(F)cc(F)cc1F)[C@H]1CC[C@H]2[C@@H]3CC[C@H]4[C@@H](O)[C@@H](O)CC[C@]4(C)[C@H]3CC[C@]12C` (stereo partly drawn) [compound 275, 24-[(2,4,6-difluorophenyl)(hydroxy)methyl]-5α-cholan-3β,4β-diol] the IC50 (SREBP pathway) was 0.141 µM and the half-life at 1 µM [1] was 1.52 h.

In the case of `C[C@H](CCCC(O)c1cccc(F)c1)[C@H]1CC[C@H]2[C@@H]3CC[C@H]4[C@@H](O)[C@@H](O)CC[C@]4(C)[C@H]3CC[C@]12C` (stereo partly drawn) [compound 281, 24-[(3-fluorophenyl)(hydroxy)methyl]-5α-cholan-3β,4β-diol], the IC50 (SREBP pathway) is reported as 0.111 µM and the half-life at 1 µM [1] is reported as 1.17 h.

Work on `C[C@H](CCCC(O)c1c(F)cccc1F)[C@H]1CC[C@H]2[C@@H]3CC[C@H]4[C@@H](O)[C@@H](O)CC[C@]4(C)[C@H]3CC[C@]12C` (stereo partly drawn) [compound 284, 24-[(2,6-difluorophenyl)(hydroxy)methyl]-5α-cholan-3β,4β-diol] yielded an IC50 (SREBP pathway) of 0.0874 µM and a half-life at 1 µM [1] greater than 2 h.

In the case of `COc1ccccc1C(O)CCC[C@@H](C)[C@H]1CC[C@H]2[C@@H]3CC[C@H]4[C@@H](O)[C@@H](O)CC[C@]4(C)[C@H]3CC[C@]12C` (stereo partly drawn) [compound 287, 24-[Hydroxy(2-methoxyphenyl)methyl]-5α-cholan-30,40-diol], the IC50 (SREBP pathway) is reported as 0.159 µM and the half-life at 1 µM [1] is reported as 1.27 h.

`C[C@H](CCCC(O)c1c(F)cccc1F)[C@H]1CC[C@H]2[C@@H]3CC[C@H]4C(=O)[C@@H](O)CC[C@]4(C)[C@H]3CC[C@]12C` (some centres unmarked) [compound 298] gave an IC50 (SREBP pathway) of 0.028 µM and a half-life at 1 µM [1] of 0.316 h.

Compound `C[C@H](CCCC(O)c1c(F)cccc1F)[C@H]1CC[C@H]2[C@H]3[C@H](CC[C@]12C)[C@@]1(C)CC[C@H](O)[C@H](O)[C@@H]1CC3(F)F` (stereo partly drawn) [compound 300, (1R,3aS,3bS,5aR,6R,7S,9aR,9bS,11aR)-1-[(2R)-6-(2,6-difluorophenyl)-6-hydroxyhexan-2-yl]-4,4-difluoro-9a,11a-dimethylhexadecahydro-1H-cyclopenta[1,2-α]phenanthrene-6,7-diol] has an IC50 (SREBP pathway) of 0.036 µM and a half-life at 1 µM [1] of 0.402 h.

With `C[C@H](CCCC(C)(C)O)[C@H]1CC[C@H]2[C@H]3[C@H](CC[C@]12C)[C@@]1(C)CC[C@H](O)C(=O)[C@@H]1CC3(F)F` [compound 302, (1R,3aS,3bS,5aR,7S,9aR,9bS,11aR)-4,4-difluoro-7-hydroxy-1-[(2R)-6-hydroxy-6-methylheptan-2-yl]-9a,11a-dimethylhexadecahydro-1H-cyclopenta[1,2-α]phenanthren-6-one] the IC50 (SREBP pathway) was 0.035 µM and the half-life at 1 µM [1] was 0.979 h.

In the case of `COc1ccccc1C(O)CCC[C@@H](C)[C@H]1CC[C@H]2[C@@H]3CC[C@H]4C[C@@H](O)CC[C@]4(C)[C@H]3CC[C@]12C` (stereo partly drawn) [compound 312, 24-[hydroxy(2-methoxyphenyl)methyl]-5α-cholan-3β-ol], the IC50 (SREBP pathway) is reported as 0.18 µM.

Compound `C[C@H](CCCC(C)(C)O)[C@H]1CC[C@H]2[C@@H]3CC[C@H]4[C@@H](O)[C@@H](OC(=O)CO)CC[C@]4(C)[C@H]3CC[C@]12C` [compound 313, (1R,3aS,3bS,5aR,6R,7S,9aR,9bS,11aR)-6-hydroxy-1-[(2R)-6-hydroxy-6-methylheptan-2-yl]-9a,11a-dimethylhexadecahydro-1H-cyclopenta[1,2-i]phenanthren-7-yl hydroxyacetate] has an IC50 (SREBP pathway) of 0.07 µM.

Work on `C[C@H](CCCC(O)c1ccc(F)cc1)[C@H]1CC[C@H]2[C@@H]3CC[C@H]4[C@@H](O)[C@@H](O)CC[C@]4(C)[C@H]3CC[C@]12C` (stereo partly drawn) [compound 316, 24-[(4-fluorophenyl)(hydroxy)methyl]-5α-cholan-3β,4β-diol] yielded an IC50 (SREBP pathway) of 0.1 µM.

Work on `COc1ccccc1C(O)CCC[C@@H](C)[C@H]1CC[C@H]2[C@@H]3C(=O)C[C@H]4[C@@H](O)[C@@H](O)CC[C@]4(C)[C@H]3CC[C@]12C` (stereo partly drawn) [compound 320, 4β-hydroxy-3β-hydroxy-24-[hydroxy(2-methoxyphenyl)methyl]-5α-cholan-7-one] yielded an IC50 (SREBP pathway) of 0.16 µM.

`COC(=O)C1CC[C@@]2(C)[C@@H](CC[C@@H]3[C@@H]2CC[C@]2(C)[C@@H]([C@H](C)CCCC(C)(C)O)CC[C@@H]32)C1` (stereo partly drawn) [compound 321, methyl 25-hydroxy-5α-cholest-3-carboxylate] showed an IC50 (SREBP pathway) of 7.2 µM.

`C[C@H](CCCC(O)c1ccccc1Cl)[C@H]1CC[C@H]2[C@@H]3CC[C@H]4[C@@H](O)[C@@H](O)CC[C@]4(C)[C@H]3CC[C@]12C` (stereo partly drawn) [compound 322, 24-[(2-chlorophenyl)(hydroxy)methyl]-5α-cholan-3β,4β-diol] showed an IC50 (SREBP pathway) of 0.61 µM.

In the case of `Cc1ccccc1C(O)CCC[C@@H](C)[C@H]1CC[C@H]2[C@@H]3CC[C@H]4[C@@H](O)[C@@H](O)CC[C@]4(C)[C@H]3CC[C@]12C` (stereo partly drawn) [compound 323, 24-[hydroxy(2-methylphenyl)methyl]-5α-cholan-3β,4β-diol], the IC50 (SREBP pathway) is reported as 0.25 µM.

Reference: patent US20250154193A1, “STEROID COMPOUND, AND PREPARATION METHOD THEREFOR AND APPLICATION THEREOF” (CHOLESGEN (SHANGHAI) CO., LTD., priority 2022, published 2025)
